The source of these data is patent US20230339970A1, “CASEIN KINASE 1 DELTA MODULATORS” (priority 2020, published 2023).

Where two headings read alike, the source gives them in different places. A value given as a limit tells only on which side of the number the result lay.

For experiment [1], the target named is T1, human recombinant GST cleaved CSNK1D (Homo sapiens, UniProt P48730).
T1 construct: GST (cleaved yes); purchased University of Dundee clone DU 19064
Put plainly: Purified Enzyme Assay (ADP-Glo CSNK1D Kinase Assay). In kind it is biochemical. The note with it: 2 nM CSNK1D; peptide substrate 150 μM; ATP 20 μM; 45 minutes at room temperature. An outline of the steps:
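GST-cleaved human recombinant CSNK1D phosphorylates peptide PLSRTL-pS-VASLPGL with ATP; compounds added in dose-response, 45 min at room temperature. ADP formed measured by ADP-Glo luminescence and converted to percent activity.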
Background: In ADP-Glo the light output rises with the ADP produced.

Experiment [2] addresses T2, human CSNK1D (Homo sapiens, UniProt P48730).
T2 construct: expressed in transfected cells
The experiment can be described thus: Whole Cell nBRET CSNK1D Binding Assay. The note with it: living CHO cells stably expressing human CSNK1D tagged with nanoluciferase; NanoBret tracer 130 nM; 2 hours at 37 C.

Experiment [3] relates to circadian rhythms. The note with it: in vivo locomotor activity of a variety of species; cited from earlier work.
The conditions of experiment [4]: including conditioned place preference with cocaine and alcohol reinstatement; cited from earlier work.
Experiment [5] relates to circadian rhythms. The settings on record: cellular reporter assays; cited from earlier work. On the technique in general: Reporter assays use an easily measured gene product as a stand-in for the process of interest.
The conditions of experiment [6]: ob/ob and diet-induced obese mouse, daily administration; cited from earlier work.

T1 sequence (P48730 whole entry): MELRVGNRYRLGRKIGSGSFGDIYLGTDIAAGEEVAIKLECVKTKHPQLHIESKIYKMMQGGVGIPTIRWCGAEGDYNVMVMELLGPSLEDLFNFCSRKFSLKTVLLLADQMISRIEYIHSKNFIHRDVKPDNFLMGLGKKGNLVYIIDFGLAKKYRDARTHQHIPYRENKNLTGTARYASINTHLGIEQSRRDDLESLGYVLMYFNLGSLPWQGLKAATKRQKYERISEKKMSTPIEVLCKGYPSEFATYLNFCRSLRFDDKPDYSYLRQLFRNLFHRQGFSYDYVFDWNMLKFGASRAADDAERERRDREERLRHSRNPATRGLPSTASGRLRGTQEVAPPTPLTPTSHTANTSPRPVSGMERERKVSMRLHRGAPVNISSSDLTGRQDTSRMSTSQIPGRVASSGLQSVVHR
T2 sequence (P48730 whole entry): as above

One may read the IC50 as the concentration that gives 50% inhibition. On to `Fc1ccc(-c2nn3c(c2-c2ccnc4cn[nH]c24)OCC(F)(F)C3)cc1` [Example 468, 6,6-Difluoro-2-(4-fluorophenyl)-3-(1H-pyrazolo[4,3-b]pyridin-7-yl)-5,7-dihydropyrazolo[5,1-b][1,3]oxazine], for which the IC50 amounted to 25 nM in experiment [1] and 187 nM in experiment [2].

Consider `Cc1nc(-c2c(-c3ccc(F)cc3)nn3c2OCC(F)(F)C3)c2cn[nH]c2n1` [Example 469, 6,6-Difluoro-2-(4-fluorophenyl)-3-(6-methyl-1H-pyrazolo[3,4-d]pyrimidin-4-yl)-5,7-dihydropyrazolo[5,1-b][1,3]oxazine], for which the half-maximal inhibitory concentration (IC50) is 28 nM in experiment [1] and 385 nM in experiment [2].

For the compound `Fc1ccc(-c2nn3c(c2-c2ccnc4[nH]nc(Cl)c24)OCC(F)(F)C3)cc1` [Example 470, 3-(3-Chloro-1H-pyrazolo[3,4-b]pyridin-4-yl)-6,6-difluoro-2-(4-fluorophenyl)-6,7-dihydro-5H-pyrazolo[5,1-b][1,3]oxazine], the concentration for half-maximal inhibition (IC50) in experiment [1] was 1 nM; in experiment [2], 17 nM.

Turning to `Fc1ccc(-c2nn3c(c2-c2c(F)cnc4[nH]ncc24)OCC2(C3)CC2(F)F)cc1` (stereo not shown) [Example 471, 2,2-Difluoro-3′-(5-fluoro-1H-pyrazolo[3,4-b]pyridin-4-yl)-2′-(4-fluorophenyl)-5′H,7′H-spiro[cyclopropane-1,6′-pyrazolo[5,1-b][1,3]oxazine]], the IC50 in experiment [1] worked out at 2 nM; in experiment [2], 3 nM.

Regarding `CC1(O)COCc2c(-c3ccnc4[nH]ncc34)c(-c3ccc(F)cn3)nn2C1` (stereo not shown) [Example 484, 2-(5-Fluoropyridin-2-yl)-7-methyl-3-(1H-pyrazolo[3,4-b]pyridin-4-yl)-7,8-dihydro-4H,6H-pyrazolo[5,1-c][1,4]oxazepin-7-ol], the IC50 is 231 nM in experiment [1] and above 10000 nM in experiment [2].

With `Nc1nccc(-c2c(-c3ccc(F)cc3)ncn2C2CCCCC2)n1` [PF-670462], the “effect on circadian rhythms” value in experiment [3] and in experiment [5] was “significantly lengthened circadian rhythms” in each case. In addition, the “efficacy in addiction/substance abuse models” value in experiment [4] is recorded as “shown efficacy”.

For the compound `Nc1nccc(-c2c(-c3ccc(F)cc3)ncn2C2CCN(Cc3ccon3)CC2)n1` [PF-5006739], the “effect on circadian rhythms” value in experiment [3] and in experiment [5] was “significantly lengthened circadian rhythms” in each case. Besides, the glucose tolerance result in experiment [6] was “improve glucose tolerance”.
